Test results as given in patent publication US9446061B2, “Composition containing antibiotics and lysophosphatidylcholine for boosting immunity or treatment of bacterial infections” (priority 2011, dated 2016).
Marks after values point to notes of the source that are not given here.

Columns and labels:
[1] = tested on: CPA-induced immunosuppressive mice; experiment: Histopathology/histomorphometry of thymus and spleen in CPA-treated mice; assay type: in vivo, ICR mice; conditions: for Spleen: Number of white pulps / Thymus: Incidences of thymic cortex atrophy (atrophic changes/total observed number of thymus) / incidences of decrease of lymphoid cells in the thymic cortex / numbers of white pulps of spleen, change compared to CPA control: LPC 1, DW286 0.5, Mix 0.75 mg/kg
Description: After measuring of organ weight, thymus and spleen was sampled. Sampled organs were fixed in 10% neutral buffered formalin. After paraffin embedding, 3-4 μm sections were prepared. Representative sections were stained with Hematoxylin and Eosin (H&E) for light microscopical examination. After that the histological profiles of individual organs were observed.
The numbers of white pulps in spleen were calculated as N/histological sections (×50) using automated image analysis (analySIS Image Processing; SIS, Germany). In addition, the numbers of atrophic changes on thymic cortex/total observed number of thymus were also calculated.

[2] = tested on: CPA-CLP sepsis mouse model; experiment: Effects of LPC, LPC isomers, Xigris and DW286aa on mortalities/survivabilities in CPA-CLP sepsis mouse model (SEP009); single i.v. 6 hrs after CLP; assay type: in vivo
Description: (§1) CPA is well known as an immunosuppressive agent. […] Then, the abdomen was closed following the general procedure.
Then, body weight and mortality changes were observed.
In the Sham and CLP control groups, 10 ml/kg of only sterile physiological saline was single intravenously dosed.

[3] = tested on: bone marrow polychromatic erythrocytes; experiment: Bone marrow MNPCE and PCE/(PCE+NCE) in CPA-treated mice; conditions: LPC 1, DW286 0.5, Mix 0.75 mg/kg; for NCE / PCE / PCE/(NCE + PCE): among 500 erythrocytes; for % MNPCE: among 1000 PCEs
Description: In Intact control animals, equal volume of saline was only dosed instead of CPA with same methods.
In brief, bone marrow cells were collected from aforementioned femur in 3 ml of inactivated fetal bovine serum (GIBCO BRL, USA), centrifuged, and smeared on slide. Preparations were dried, and fixed by submerging in absolute methanol (for 10˜20 min). Fixed slides were stained as follow:
Slides were randomly coded and examined under×1000 magnification by two different experts. Small round or oval shaped bodies, size of which ranging about ⅕ to 1/20 of diameter of PCE, were counted as micronuclei. Attention was given to discriminate micronuclei from artifacts. Results were expressed as the number of MNPCEs in 1000 PCEs. Mean number of MNPCE±S.D. was calculated for each treatment group.
Appropriate doses of candidate materials were dissolved in 5% human serum albumin, and subcutaneously dosed at 10 ml/kg (of body weight), 4 times 12-hr intervals from 6 hrs after CLP or 24 hrs after last CPA-dosing, respectively. In the INTACT, CPA, or CPA-CLP control groups, an equal volume of 5% human serum albumin was dosed by the same procedure.

CPA-CLP mice = experiment: Mortality of CPA-CLP mice, LPC and DW286AA alone or combined (Example 9); s.c. 4 times 12-hr intervals from 6 hrs after CLP; assay type: in vivo, ICR mice; conditions: for Survival rate: LPC 1, DW286 0.5, Mix 0.75 mg/kg; for survival rates (survivors/total in brackets), Table 13: mg/kg: LPC 1, LPC + DW286 0.5 + 0.25, DW286/LPC 0.5/1.0, LPC/DW286 1.0/0.5, DW286 0.5
Source text: as §1

[4] = LPC, LPC18:0, LPC18:1, LPA 5 mpk, Xigris 0.4 mpk, DW286aa 10 mpk, 1st CPA treat
[5] = LPC, LPC18:0, LPC18:1, LPA 5 mpk, Xigris 0.4 mpk, DW286aa 10 mpk, 2nd CPA treat
[6] = LPC, LPC18:0, LPC18:1, LPA 5 mpk, Xigris 0.4 mpk, DW286aa 10 mpk, At CLP (day 0)
[7] = LPC, LPC18:0, LPC18:1, LPA 5 mpk, Xigris 0.4 mpk, DW286aa 10 mpk, Day 1
[8] = LPC, LPC18:0, LPC18:1, LPA 5 mpk, Xigris 0.4 mpk, DW286aa 10 mpk, Day 2
[9] = LPC, LPC18:0, LPC18:1, LPA 5 mpk, Xigris 0.4 mpk, DW286aa 10 mpk, Day 3
[10] = LPC, LPC18:0, LPC18:1, LPA 5 mpk, Xigris 0.4 mpk, DW286aa 10 mpk, Day 4
[11] = LPC, LPC18:0, LPC18:1, LPA 5 mpk, Xigris 0.4 mpk, DW286aa 10 mpk, Day 5
[12] = LPC, LPC18:0, LPC18:1, LPA 5 mpk, Xigris 0.4 mpk, DW286aa 10 mpk, Day 6
[13] = LPC, LPC18:0, LPC18:1, LPA 5 mpk, Xigris 0.4 mpk, DW286aa 10 mpk, Day 7
[14] = LPC, LPC18:0, LPC18:1, LPA 5 mpk, Xigris 0.4 mpk, DW286aa 10 mpk, Day 8
[15] = LPC, LPC18:0, LPC18:1, LPA 5 mpk, Xigris 0.4 mpk, DW286aa 10 mpk, Day 9
[16] = LPC, LPC18:0, LPC18:1, LPA 5 mpk, Xigris 0.4 mpk, DW286aa 10 mpk, Day 10
[17] = LPC, LPC18:0, LPC18:1, LPA 5 mpk, Xigris 0.4 mpk, DW286aa 10 mpk, Total
[18] = Xigris 2 mpk, DW286aa 20 mpk, 1st CPA treat
[19] = Xigris 2 mpk, DW286aa 20 mpk, 2nd CPA treat
[20] = Xigris 2 mpk, DW286aa 20 mpk, At CLP (day 0)
[21] = Xigris 2 mpk, DW286aa 20 mpk, Day 1
[22] = Xigris 2 mpk, DW286aa 20 mpk, Day 2
[23] = Xigris 2 mpk, DW286aa 20 mpk, Day 3
[24] = Xigris 2 mpk, DW286aa 20 mpk, Day 4
[25] = Xigris 2 mpk, DW286aa 20 mpk, Day 5
[26] = Xigris 2 mpk, DW286aa 20 mpk, Day 6
[27] = Xigris 2 mpk, DW286aa 20 mpk, Day 7
[28] = Xigris 2 mpk, DW286aa 20 mpk, Day 8
[29] = Xigris 2 mpk, DW286aa 20 mpk, Day 9
[30] = Xigris 2 mpk, DW286aa 20 mpk, Day 10
[31] = Xigris 2 mpk, DW286aa 20 mpk, Total

CON=C1CN(c2nc3c(cc2F)c(=O)c(C(=O)O)cn3C2CC2)CC1(C)CN.Cl (stereo not shown) [DW286aa, 7-[3-(aminomethyl)-4-(methoxyimino)-3-methyltetrahydro-1H-1-pyrrolyl]-1-cyclopropyl-6-fluoro-4-oxo-1,4-dihydro[1,8]naphthyridine-3-carboxylic acid hydrochloric acid salt]
Spleen: Number of white pulps [1]: 6.11 ± 1.45 N/histological sections | Thymus: Incidences of thymic cortex atrophy (atrophic changes/total observed number of thymus) [1]: 9/9 (100%) | incidences of decrease of lymphoid cells in the thymic cortex [1]: 100% | numbers of white pulps of spleen, change compared to CPA control [1]: −1.79% | Mortalities [2, 4]: 0 | survivabilities [2, 4]: 100% | Mortalities [2, 5]: 0 | survivabilities [2, 5]: 100% | Mortalities [2, 6]: 0 | survivabilities [2, 6]: 100% | Mortalities [2, 7]: 1 | survivabilities [2, 7]: 90% | Mortalities [2, 8]: 2 | survivabilities [2, 8]: 70% | Mortalities [2, 9]: 0 | survivabilities [2, 9]: 70% | Mortalities [2, 10]: 0 | survivabilities [2, 10]: 70% | Mortalities [2, 11]: 0 | survivabilities [2, 11]: 70% | Mortalities [2, 12]: 0 | survivabilities [2, 12]: 70% | Mortalities [2, 13]: 2 | survivabilities [2, 13]: 50% | Mortalities [2, 14]: 1 | survivabilities [2, 14]: 40% | Mortalities [2, 15]: 1 | survivabilities [2, 15]: 30% | Mortalities [2, 16]: 0 | survivabilities [2, 16]: 30% | Mortalities [2, 17]: 7 | survivabilities [2, 17]: 30% | Mortalities [2, 18]: 0 | survivabilities [2, 18]: 100% | Mortalities [2, 19]: 0 | survivabilities [2, 19]: 100% | Mortalities [2, 20]: 0 | survivabilities [2, 20]: 100% | Mortalities [2, 21]: 0 | survivabilities [2, 21]: 100% | Mortalities [2, 22]: 1 | survivabilities [2, 22]: 90% | Mortalities [2, 23]: 1 | survivabilities [2, 23]: 80% | Mortalities [2, 24]: 0 | survivabilities [2, 24]: 80% | Mortalities [2, 25]: 0 | survivabilities [2, 25]: 80% | Mortalities [2, 26]: 2 | survivabilities [2, 26]: 60% | Mortalities [2, 27]: 1 | survivabilities [2, 27]: 50% | Mortalities [2, 28]: 0 | survivabilities [2, 28]: 50% | Mortalities [2, 29]: 1 | survivabilities [2, 29]: 40% | Mortalities [2, 30]: 1 | survivabilities [2, 30]: 30% | Mortalities [2, 31]: 7 | survivabilities [2, 31]: 30% | MNPCE numbers, change compared to CPA control [3]: −10.85% | PCE/(PCE+NCE), change compared to CPA control [3]: −14.79% | NCE [3]: 379.67 ± 17.07 | PCE [3]: 120.33 ± 17.07 | PCE/(NCE + PCE) [3]: 0.24 ± 0.03 | % MNPCE [3]: 2.56 ± 0.57 % | Survival rate (CPA-CLP mice; 1 day after CLP): 100% | survival rates (survivors/total in brackets), Table 13 (CPA-CLP mice; 1 day after dosing): 100 (9/9) | Survival rate (CPA-CLP mice; 2 days after CLP): 44.44% | survival rates (survivors/total in brackets), Table 13 (CPA-CLP mice; 2 days after dosing): 44 (4/9) | Survival rate (CPA-CLP mice; 3 days after CLP): 33.33% | survival rates (survivors/total in brackets), Table 13 (CPA-CLP mice; 3 days after dosing): 33 (3/9) | Survival rate (CPA-CLP mice; 4 days after CLP): 0% | survival rates (survivors/total in brackets), Table 13 (CPA-CLP mice; 4 days after dosing): 0 (0/9) | Survival rate (CPA-CLP mice; 5 days after CLP): 0% | Survival rate (CPA-CLP mice; At CLP): 100% | survival rates (survivors/total in brackets), Table 13 (CPA-CLP mice; Dosing Day 0): 100 (9/9) | Survival rate (CPA-CLP mice; Total): 100%

Lysophosphatidylcholine [LPC]
atrophic changes (decreases in lymphoid cells in the thymic cortex), FIG. 7 ([1]; CPA-treated model, in words): effectively inhibited | splenic atrophy and decrease in lymphoid cells, FIG. 8 ([1]; CPA-treated model, in words): effectively inhibited | Spleen: Number of white pulps [1]: 12.56 ± 1.81*^,# N/histological sections | Thymus: Incidences of thymic cortex atrophy (atrophic changes/total observed number of thymus) [1]: 8/9 (88.89%) | incidences of decrease of lymphoid cells in the thymic cortex [1]: 88.89% | numbers of white pulps of spleen, change compared to CPA control [1]: 101.79% | Mortalities [2, 4]: 0 | survivabilities [2, 4]: 100% | Mortalities [2, 5]: 0 | survivabilities [2, 5]: 100% | Mortalities [2, 6]: 0 | survivabilities [2, 6]: 100% | Mortalities [2, 7]: 1 | survivabilities [2, 7]: 90% | Mortalities [2, 8]: 3 | survivabilities [2, 8]: 60% | Mortalities [2, 9]: 1 | survivabilities [2, 9]: 50% | Mortalities [2, 10]: 1 | survivabilities [2, 10]: 40% | Mortalities [2, 11]: 2 | survivabilities [2, 11]: 20% | Mortalities [2, 12]: 0 | survivabilities [2, 12]: 20% | Mortalities [2, 13]: 1 | survivabilities [2, 13]: 10% | Mortalities [2, 14]: 1 | survivabilities [2, 14]: 0% | Mortalities [2, 15]: 0 | survivabilities [2, 15]: 0% | Mortalities [2, 16]: 0 | survivabilities [2, 16]: 0% | Mortalities [2, 17]: 10 | survivabilities [2, 17]: 0% | MNPCE numbers, change compared to CPA control [3]: −14.34% | PCE/(PCE+NCE), change compared to CPA control [3]: −12.98% | NCE [3]: 377.11 ± 22.32 | PCE [3]: 122.89 ± 22.32 | PCE/(NCE + PCE) [3]: 0.25 ± 0.04 | % MNPCE [3]: 2.46 ± 0.75 % | Survival rate (CPA-CLP mice; 1 day after CLP): 55.55% | survival rates (survivors/total in brackets), Table 13 (CPA-CLP mice; 1 day after dosing): 56 (5/9) | Survival rate (CPA-CLP mice; 2 days after CLP): 33.33% | survival rates (survivors/total in brackets), Table 13 (CPA-CLP mice; 2 days after dosing): 33 (3/9) | Survival rate (CPA-CLP mice; 3 days after CLP): 22.22% | survival rates (survivors/total in brackets), Table 13 (CPA-CLP mice; 3 days after dosing): 22 (2/9) | Survival rate (CPA-CLP mice; 4 days after CLP): 0% | survival rates (survivors/total in brackets), Table 13 (CPA-CLP mice; 4 days after dosing): 0 (0/9) | Survival rate (CPA-CLP mice; 5 days after CLP): 0% | Survival rate (CPA-CLP mice; At CLP): 100% | survival rates (survivors/total in brackets), Table 13 (CPA-CLP mice; Dosing Day 0): 100 (9/9) | Survival rate (CPA-CLP mice; Total): 0%
